Target: T1, ERα (Homo sapiens, UniProt P03372)
T1 construct: host or cells: MCF7
T1 sequence (P03372 1-595): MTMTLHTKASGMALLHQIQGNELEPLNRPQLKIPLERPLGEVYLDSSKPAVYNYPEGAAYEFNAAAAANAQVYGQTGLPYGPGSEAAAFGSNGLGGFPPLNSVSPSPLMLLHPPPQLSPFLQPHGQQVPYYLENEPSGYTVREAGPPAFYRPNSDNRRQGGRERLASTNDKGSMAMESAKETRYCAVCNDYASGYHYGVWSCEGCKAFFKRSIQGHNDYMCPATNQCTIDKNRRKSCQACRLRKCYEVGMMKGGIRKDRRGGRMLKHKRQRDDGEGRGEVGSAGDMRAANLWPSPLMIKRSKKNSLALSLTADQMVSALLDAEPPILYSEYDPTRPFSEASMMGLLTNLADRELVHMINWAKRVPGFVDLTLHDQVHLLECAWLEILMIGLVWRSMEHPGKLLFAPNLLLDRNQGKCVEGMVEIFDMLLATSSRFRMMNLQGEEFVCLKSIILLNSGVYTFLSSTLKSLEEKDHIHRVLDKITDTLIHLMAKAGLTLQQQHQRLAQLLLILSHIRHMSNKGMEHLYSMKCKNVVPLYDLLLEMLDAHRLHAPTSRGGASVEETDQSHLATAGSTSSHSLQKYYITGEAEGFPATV
Assay: Estrogen receptor degradation activity: breast cancer cell ERα in cell western assay (MCF7 cells)
Assay type: cell-based
Settings: for % Degradation At 0.3 μM: 4 hours, relative to fulvestrant 0.1 μM positive control; for DC50: 4 hours post compound addition, concentration which degrades 50% of the estrogen receptor, read-out: Degradation IC50
Summary of the method: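 Compounds were applied to MCF7 cells in stripped-serum, phenol red-free medium for 4 h at final 0.3–0.0000018 μM, with fulvestrant (0.1 μM) as control. Value: IC50 (nM) for 50% ERα degradation.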

| % Degradation At 0.3 μM [%] | DC50 [nM] | Compound |
| --- | --- | --- |
| 91 | 0.3 | CC1CCc2cc(C(=O)O)ccc2C(c2ccc(CC3CN(CCCF)C3)cc2)=C1c1ccc(F)cc1C(F)(F)F (racemic) [Example 312, 8-(4-fluoro-2-(trifluoromethyl)phenyl)-9-(4-((1-(3-fluoropropyl)azetidin-3-yl)methyl)phenyl)-7-methyl-6,7-dihydro-5H-benzo[7]annulene-3-carboxylic acid] |
| 92 | 0.3 | Cl.O=C(O)c1ccc2c(c1)CCCC(c1cccc(F)c1Cl)=C2c1ccc(CC2CN(CCCF)C2)cc1 [Example 9, 8-(2-chloro-3-fluorophenyl)-9-(4-((1-(3-fluoropropyl)azetidin-3-yl)methyl)phenyl)-6,7-dihydro-5H-benzo[7]annulene-3-carboxylic acid] |
| 94 | 0.6 | Cl.O=C(O)c1ccc2c(c1)CCCC(c1ccc(C(F)(F)F)cc1)=C2c1ccc(CC2CN(CCCF)C2)cc1 [Example 318, 9-(4-((1-(3-fluoropropyl)azetidin-3-yl)methyl)phenyl)-8-(4-(trifluoromethyl)phenyl)-6,7-dihydro-5H-benzo[7]annulene-3-carboxylic acid hydrochloride] |
| 87 | 0.4 | CC1CCc2cc(C(=O)O)ccc2C(c2ccc(CC3CN(CCCF)C3)cc2)=C1c1cccc(C(F)(F)F)c1 (racemic) [Example 333, 9-(4-((1-(3-fluoropropyl)azetidin-3-yl)methyl)phenyl)-7-methyl-8-(3-(trifluoromethyl)phenyl)-6,7-dihydro-5H-benzo[7]annulene-3-carboxylic acid] |
| 80 | 110 | O=C(O)c1ccc2c(c1)CCCC(c1cccc(CO)c1)=C2c1ccc(CC2CN(CCCF)C2)cc1 [Example 320, 9-(4-((1-(3-fluoropropyl)azetidin-3-yl)methyl)phenyl)-8-(3-(hydroxymethyl)phenyl)-6,7-dihydro-5H-benzo[7]annulene-3-carboxylic acid] |
| 95 | 1.6 | O=C(O)c1ccc2c(c1)CCCC(c1ccc(Cl)cc1Cl)=C2c1ccc(C(O)C2CN(CCCF)C2)cc1 (single isomer, unassigned) [Example 41, 8-(2,4-dichlorophenyl)-9-(4-((1-(3-fluoropropyl)azetidin-3-yl)(hydroxy)methyl)phenyl)-6,7-dihydro-5H-benzo[7]annulene-3-carboxylic acid] |
| 89 | 0.5 | CC1CCc2cc(C(=O)O)ccc2C(c2ccc(CC3CN(CCCF)C3)cc2)=C1c1ccc(F)cc1 (racemic) [Example 325, 8-(4-fluorophenyl)-9-(4-((1-(3-fluoropropyl)azetidin-3-yl)methyl)phenyl)-7-methyl-6,7-dihydro-5H-benzo[7]annulene-3-carboxylic acid] |
| 89 | 0.8 | O=C(O)c1ccc2c(c1)CCCC(c1cc(F)c(F)c(F)c1)=C2c1ccc(CC2CN(CCCF)C2)cc1 [Example 267, 9-(4-((1-(3-fluoropropyl)azetidin-3-yl)methyl)phenyl)-8-(3,4,5-trifluorophenyl)-6,7-dihydro-5H-benzo[7]annulene-3-carboxylic acid] |
| 85 | 1.4 | Oc1ccc2c(c1)CCCC(c1ccc(Cl)cc1Cl)=C2c1ccc(CC2CN(CCCF)C2)cc1 [Example 254, 8-(2,4-dichlorophenyl)-9-(4-((1-(3-fluoropropyl)azetidin-3-yl)methyl)phenyl)-6,7-dihydro-5H-benzo[7]annulen-3-ol] |
| 91 | 0.3 | O=C(O)c1ccc2c(c1)CCCC(c1cccc(Cl)c1Cl)=C2c1ccc(CC2CN(CCCF)C2)cc1 [Example 19, 8-(2,3-dichlorophenyl)-9-(4-((1-(3-fluoropropyl)azetidin-3-yl)methyl)phenyl)-6,7-dihydro-5H-benzo[7]annulene-3-carboxylic acid] |
| 82 | 25.8 | COc1ncc(C2=C(c3ccc(CC4CN(CCCF)C4)cc3)c3ccc(C(=O)O)cc3CCC2)cc1C(F)(F)F [Example 306, 9-(4-((1-(3-fluoropropyl)azetidin-3-yl)methyl)phenyl)-8-(6-methoxy-5-(trifluoromethyl)pyridin-3-yl)-6,7-dihydro-5H-benzo[7]annulene-3-carboxylic acid] |
| 89 | 0.6 | O=C([O-])c1ccc2c(c1)CCCC(c1cc(C(F)F)ccc1F)=C2c1ccc(CC2CN(CCCF)C2)cc1.[Na+] [Example 273, sodium 8-(5-(difluoromethyl)-2-fluorophenyl)-9-(4-((1-(3-fluoropropyl)azetidin-3-yl)methyl)phenyl)-6,7-dihydro-5H-benzo[7]annulene-3-carboxylate] |
| 89 | 0.4 | Cc1c(C2=C(c3ccc(CC4CN(CCC(F)F)C4)cc3)c3ccc(C(=O)O)cc3CCC2)ccc(F)c1F [Example 275, 8-(3,4-difluoro-2-methylphenyl)-9-(4-((1-(3,3-difluoropropyl)azetidin-3-yl)methyl)phenyl)-6,7-dihydro-5H-benzo[7]annulene-3-carboxylic acid] |
| 87 | 1.6 | CC(C)C1CCc2cc(C(=O)O)ccc2C(c2ccc(CC3CN(CCCF)C3)cc2)=C1c1ccc(Cl)cc1 (racemic) [Example 317, 8-(4-chlorophenyl)-9-(4-((1-(3-fluoropropyl)azetidin-3-yl)methyl)phenyl)-7-isopropyl-6,7-dihydro-5H-benzo[7]annulene-3-carboxylic acid] |
| 88 | 0.5 | CC(C)C1CCc2cc(C(=O)O)ccc2C(c2ccc(CC3CN(CCCF)C3)cc2)=C1c1ccc(Cl)cc1Cl (single isomer, unassigned) [Example 321, 8-(2,4-dichlorophenyl)-9-(4-((1-(3-fluoropropyl)azetidin-3-yl)methyl)phenyl)-7-isopropyl-6,7-dihydro-5H-benzo[7]annulene-3-carboxylic acid] |
| 82 | 1 | Cc1c(C2=C(c3ccc(CC4CN(CCC(F)(F)F)C4)cc3)c3ccc(C(=O)O)cc3CCC2)cccc1C(F)(F)F [Example 256, 8-(2-methyl-3-(trifluoromethyl)phenyl)-9-(4-((1-(3,3,3-trifluoropropyl)azetidin-3-yl)methyl)phenyl)-6,7-dihydro-5H-benzo[7]annulene-3-carboxylic acid] |
| 85 | 0.4 | O=C(O)c1ccc2c(c1)CCCC(c1ccc(F)cc1C(F)(F)F)=C2c1ccc(CC2CN(CCC(F)F)C2)cc1 [Example 276, 9-(4-((1-(3,3-difluoropropyl)azetidin-3-yl)methyl)phenyl)-8-(4-fluoro-2-(trifluoromethyl)phenyl)-6,7-dihydro-5H-benzo[7]annulene-3-carboxylic acid] |
| 91 | 0.4 | Cc1ccc(C2=C(c3ccc(CC4CN(CCCF)C4)cc3)c3ccc(C(=O)O)cc3CCC2)c(F)c1.Cl [Example 11, 8-(2-fluoro-4-methylphenyl)-9-(4-((1-(3-fluoropropyl)azetidin-3-yl)methyl)phenyl)-6,7-dihydro-5H-benzo[7]annulene-3-carboxylic acid] |
| 86 | 0.7 | O=C(O)c1ccc2c(c1)CCCC(c1cc(CC(F)(F)F)ccc1F)=C2c1ccc(CC2CN(CCCF)C2)cc1 [Example 295, 8-(2-fluoro-5-(2,2,2-trifluoroethyl)phenyl)-9-(4-((1-(3-fluoropropyl)azetidin-3-yl)methyl)phenyl)-6,7-dihydro-5H-benzo[7]annulene-3-carboxylic acid] |
| 86 | 0.8 | O=C(O)c1ccc2c(c1)CCC(C1CC1)C(c1ccc(Cl)cc1)=C2c1ccc(CC2CN(CCCF)C2)cc1 (racemic) [Example 324, 8-(4-chlorophenyl)-7-cyclopropyl-9-(4-((1-(3-fluoropropyl)azetidin-3-yl)methyl)phenyl)-6,7-dihydro-5H-benzo[7]annulene-3-carboxylic acid] |
| 90 | 2.2 | O=C(O)c1cc2c(cc1Cl)C(c1ccc(CC3CN(CCCF)C3)cc1)=C(c1ccc(Cl)cc1Cl)CCC2 [Example 248, 2-chloro-8-(2,4-dichlorophenyl)-9-(4-((1-(3-fluoropropyl)azetidin-3-yl)methyl)phenyl)-6,7-dihydro-5H-benzo[7]annulene-3-carboxylic acid] |
| 90 | 0.8 | Cc1cc(Cl)ccc1C1=C(c2ccc(CC3CN(CCCF)C3)cc2)c2ccc(C(=O)O)cc2OCC1 [Example 263, 4-(4-chloro-2-methylphenyl)-5-(4-((1-(3-fluoropropyl)azetidin-3-yl)methyl)phenyl)-2,3-dihydrobenzo[b]oxepine-8-carboxylic acid] |
| 91 | 0.7 | CC1CCc2cc(C(=O)O)ccc2C(c2ccc(CC3CN(CCCF)C3)cc2)=C1c1ccc(F)c(F)c1 (racemic) [Example 326, 8-(3,4-difluorophenyl)-9-(4-((1-(3-fluoropropyl)azetidin-3-yl)methyl)phenyl)-7-methyl-6,7-dihydro-5H-benzo[7]annulene-3-carboxylic acid] |

Reference: patent publication US12595230B2, “Substituted 6,7-dihydro-5H-benzo[7]annulene compounds and their derivatives, processes for their preparation and therapeutic uses thereof” (Sanofi, priority 2020, dated 2026)
